Experimental data: ChEMBL document CHEMBL5537110, “SIRT1-dependent mitochondrial biogenesis supports therapeutic effects of 4-butyl-polyhydroxybenzophenone compounds against NAFLD” (Eur J Med Chem, 2023)
Calls of active or inactive are those of the source.

How the values were obtained:
HepG2 [1] = experiment: Recovery of mitochondrial activity in 40% FBS-induced steatosis human HepG2 cells model assessed as increase in number of mitochondria incubated in steatosis inducing DMEM with 40% FBS medium for 24 hrs followed by compound treatment by MitoTracker Green based fluorescence analysis; format: functional, cell-based; conditions: dose 0.2-5 µM
HepG2 [2] = experiment: Inhibition of liver injury in 40% FBS-induced steatosis human HepG2 cells model assessed as increase in liver protection index by measuring increase in GSH level at 0.2 to 5 uM incubated in steatosis inducing DMEM with 40% FBS medium for 24 hrs followed by compound treatment; format: functional, cell-based; conditions: dose 0.2-5 µM
HepG2 [3] = experiment: Recovery of mitochondrial biogenesis in 40% FBS-induced steatosis human HepG2 cells model assessed as increase in SIRT1 protein expression incubated for 24 hrs by western blot analysis; format: functional, cell-based; conditions: dose 0.2-5 µM
HepG2 [4] = experiment: Induction of mitochondrial biogenesis in human HepG2 cells assessed as mitochondrial ND6 mRNA expression incubated for 24 hrs in presence of SIRT1 inhibitor, EX527 by qRT-PCR analysis; format: functional, cell-based
HepG2 [5] = experiment: Inhibition of liver injury in 40% FBS-induced steatosis human HepG2 cells model assessed as decrease in LDH level at 0.2 to 5 uM incubated in steatosis inducing DMEM with 40% FBS medium for 24 hrs followed by compound treatment; format: functional, cell-based; conditions: dose 0.2-5 µM
HepG2 [6] = experiment: Inhibition of liver injury in 40% FBS-induced steatosis human HepG2 cells model assessed as increase in liver protection index by measuring increase in GSH level at 0.2 to 5 uM incubated with compound for 24 hrs followed by replacement with steatosis inducing DMEM with 40% FBS medium; format: functional, cell-based; conditions: dose 0.2-5 µM
[7] = target: T1, Peroxisome proliferator-activated receptor gamma coactivator 1-alpha (Homo sapiens) (UniProt Q9UBK2); experiment: Binding affinity to PGC1alpha in human HepG2 cells assessed as increase in protein abundance at 80 to 320 uM pretreated with compound for 30 mins followed by proteolysis for 15 mins by DARTS assay; format: cell-based; conditions: filed as activator, dose 80-320 µM, time 45.0 min
T1 sequence (whole entry): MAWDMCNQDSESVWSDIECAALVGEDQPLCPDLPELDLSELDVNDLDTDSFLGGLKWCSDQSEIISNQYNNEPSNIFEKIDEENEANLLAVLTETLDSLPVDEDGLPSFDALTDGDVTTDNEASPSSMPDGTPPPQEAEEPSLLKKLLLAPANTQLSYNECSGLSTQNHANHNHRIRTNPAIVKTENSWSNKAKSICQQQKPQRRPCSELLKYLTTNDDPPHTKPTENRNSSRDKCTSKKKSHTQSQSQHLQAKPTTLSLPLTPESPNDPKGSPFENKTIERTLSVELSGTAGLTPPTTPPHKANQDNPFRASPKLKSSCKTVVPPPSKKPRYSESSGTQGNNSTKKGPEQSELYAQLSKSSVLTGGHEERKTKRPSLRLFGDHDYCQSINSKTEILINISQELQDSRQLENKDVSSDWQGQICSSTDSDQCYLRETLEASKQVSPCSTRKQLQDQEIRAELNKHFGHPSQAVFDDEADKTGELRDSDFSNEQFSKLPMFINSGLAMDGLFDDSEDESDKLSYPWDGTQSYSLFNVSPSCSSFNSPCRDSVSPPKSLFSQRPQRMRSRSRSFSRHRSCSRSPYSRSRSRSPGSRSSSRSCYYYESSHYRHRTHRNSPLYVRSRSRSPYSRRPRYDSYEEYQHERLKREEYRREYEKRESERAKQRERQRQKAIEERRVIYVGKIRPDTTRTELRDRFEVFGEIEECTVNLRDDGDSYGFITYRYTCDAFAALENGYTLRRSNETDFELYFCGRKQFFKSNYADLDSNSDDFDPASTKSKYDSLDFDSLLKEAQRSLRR

HepG2 [8] = experiment: Induction of mitochondrial biogenesis in human HepG2 cells assessed as TFAM mRNA expression incubated for 24 hrs in presence of SIRT1 inhibitor, EX527 by qRT-PCR analysis; format: functional, cell-based
Rattus norvegicus [9] = experiment: Hepatoprotective activity against high fat diet-fed NAFLD Sprague-Dawley rat model assessed as decrease in serum ALT level administered intragastrically via gavage for 4 weeks; format: functional, organism-based; conditions: dose 12.3-61.4 mg/kg, route ig
HepG2 [10] = experiment: Recovery of mitochondrial biogenesis in 40% FBS-induced steatosis human HepG2 cells model assessed as increase in TFAM mRNA expression incubated for 24 hrs by qRT-PCR analysis; format: functional, cell-based; conditions: dose 0.2-5 µM
HepG2 [11] = experiment: Induction of mitochondrial biogenesis in human HepG2 cells assessed as TFAM protein expression incubated for 24 hrs in presence of SIRT1 inhibitor, EX527 by western blot analysis; format: functional, cell-based
Rattus norvegicus [12] = experiment: Hepatoprotective activity against high fat diet-fed NAFLD Sprague-Dawley rat model assessed as increase in serum SOD level administered intragastrically via gavage for 4 weeks; format: functional, organism-based; conditions: dose 12.3-61.4 mg/kg, route ig
Rattus norvegicus [13] = experiment: Hepatoprotective activity against high fat diet-fed NAFLD Sprague-Dawley rat model assessed as decrease in serum LDH level administered intragastrically via gavage for 4 weeks; format: functional, organism-based; conditions: dose 12.3-61.4 mg/kg, route ig
HepG2 [14] = experiment: Induction of SIRT1/PGC1alpha interaction in human HepG2 cells at 5 umol/L by co-immunoprecipitataion analysis; format: cell-based; conditions: filed as activator, dose 5.0 µmol/L
HepG2 [15] = experiment: Inhibition of lipid toxicity in 40% FBS-induced steatosis human HepG2 cells model assessed as decrease in lipid accumulation at 0.2 to 5 uM incubated in steatosis inducing DMEM with 40% FBS medium for 24 hrs followed by compound treatment by Oil red O staining based analysis; format: functional, cell-based; conditions: dose 0.2-5 µM
HepG2 [16] = experiment: Inhibition of mitochondrial membrane potential dissipation in 40% FBS-induced steatosis human HepG2 cells model assessed as increase in mitochondrial membrane potential incubated with compound for 24 hrs followed by replacement with steatosis inducing DMEM with 40% FBS medium by JC-1 staining based fluorescence microscopy; format: functional, cell-based; conditions: Mitochondria, dose 0.2-5 µM
HepG2 [17] = experiment: Induction of mitochondrial biogenesis in human HepG2 cells assessed as NRF1 protein expression incubated for 24 hrs in presence of SIRT1 inhibitor, EX527 by western blot analysis; format: functional, cell-based
HepG2 [18] = experiment: Recovery of mitochondrial biogenesis in 40% FBS-induced steatosis human HepG2 cells model assessed as increase in NRF1 protein expression incubated for 24 hrs by western blot analysis; format: functional, cell-based; conditions: dose 0.2-5 µM
HepG2 [19] = experiment: Recovery of energy production in 40% FBS-induced steatosis human HepG2 cells model assessed as upregulation of mitochondrial ATP production incubated in steatosis inducing DMEM with 40% FBS medium for 24 hrs followed by compound treatment by luciferase based assay; format: functional, cell-based; conditions: Mitochondria, dose 0.2-5 µM
HepG2 [20] = experiment: Recovery of mitochondrial biogenesis in 40% FBS-induced steatosis human HepG2 cells model assessed as increase in PGC1alpha mRNA expression incubated for 24 hrs by qRT-PCR analysis; format: functional, cell-based; conditions: dose 0.2-5 µM
HepG2 [21] = experiment: Inhibition of lipid toxicity in 40% FBS-induced steatosis human HepG2 cells model assessed as decrease in lipid accumulation at 0.2 to 5 uM incubated with compound for 24 hrs followed by replacement with steatosis inducing DMEM with 40% FBS medium by Oil red O staining based analysis; format: functional, cell-based; conditions: dose 0.2-5 µM
HepG2 [22] = experiment: Recovery of mitochondrial biogenesis in 40% FBS-induced steatosis human HepG2 cells model assessed as increase in mitochondrial ND6 mRNA expression incubated for 24 hrs by qRT-PCR analysis; format: functional, cell-based; conditions: dose 0.2-5 µM
HepG2 [23] = experiment: Induction of mitochondrial biogenesis in human HepG2 cells assessed as NRF1 mRNA expression incubated for 24 hrs in presence of SIRT1 inhibitor, EX527 by qRT-PCR analysis; format: functional, cell-based

CC(C)(C)c1ccc(C(=O)c2ccc(O)c(O)c2)cc1
inactive: Activity (HepG2 [4]) | Activity (HepG2 [8]) | Activity (HepG2 [11]) | Activity (HepG2 [17]) | Activity (HepG2 [23])
active: Activity (HepG2 [1]) Dose-Dependent Effect | inhibition (HepG2 [2]) | Activity (HepG2 [3]) Dose-Dependent Effect | inhibition (HepG2 [5]) | inhibition (HepG2 [6]) | Activity [7] | Activity (Rattus norvegicus [9]) | Activity (HepG2 [10]) Dose-Dependent Effect | Activity (Rattus norvegicus [12]) | Activity (Rattus norvegicus [13]) | Activity (HepG2 [14]) | inhibition (HepG2 [15]) | inhibition (HepG2 [16]) Dose-Dependent Effect | Activity (HepG2 [18]) Dose-Dependent Effect | Activity (HepG2 [19]) Dose-Dependent Effect | Activity (HepG2 [20]) Dose-Dependent Effect | inhibition (HepG2 [21]) | Activity (HepG2 [22]) Dose-Dependent Effect
